Six molecules from ChEMBL document CHEMBL3872239, “Studies relating to the synthesis, enzymatic reduction and cytotoxicity of a series of nitroaromatic prodrugs” (Bioorg Med Chem Lett, 2016) can be followed below.

Data set [1] concerns the target T1, NAD(P)H dehydrogenase [quinone] 1 (Homo sapiens, UniProt P15559). Briefly: Prodrug activation assessed as human NQO1-mediated compound reduction by measuring specific enzyme activity at 100 uM measured every 20 mins by HPLC based UV-Vis method.
In data set [2] the target is T1, NAD(P)H dehydrogenase [quinone] 1. Briefly: Prodrug activation assessed as human NQO1-mediated compound reduction by measuring specific enzyme activity at 100 uM measured every 20 mins by HPLC based UV-Vis method relative to CB1954.
The nature of data set [3]: Prodrug activation assessed as Escherichia coli NR-mediated compound reduction by measuring specific enzyme activity at 100 uM measured every 20 mins by HPLC based UV-Vis method.
A short description of data set [4]: Prodrug activation assessed as Escherichia coli NR-mediated compound reduction by measuring specific enzyme activity at 100 uM measured every 20 mins by HPLC based UV-vis method relative to CB1954.
A short description of data set [5]: Cytotoxicity against Chinese hamster F179 transformed cells assessed as reduction in cell viability after 3 days by SRB assay. The format is toxicity, cell-based, Cricetulus griseus.
Data set [6] in a line: Cytotoxicity against Chinese hamster DT7 cells expressing human NQO1 assessed as reduction in cell viability after 3 days by SRB assay. The format is functional, cell-based, Cricetulus griseus. A general note: In SRB staining, fixed cells bind dye roughly in proportion to their protein.
Data set [7] is described as follows: Cytotoxicity against Chinese hamster T116 cells expressing Escherichia coli Nitroreductase assessed as reduction in cell viability after 3 days by SRB assay. It counts as functional, Cricetulus griseus.
The nature of data set [8]: Cytotoxicity against Chinese hamster 186/6 cells expressing rat NQO1 assessed as reduction in cell viability after 3 days by SRB assay. It counts as functional, cell-based, Cricetulus griseus.
Data set [9] concerns the target T1, NAD(P)H dehydrogenase [quinone] 1. As to the kind of experiment: Drug metabolism assessed as human NQO1-mediated compound reduction by measuring specific enzyme activity at 100 uM measured every 20 mins by HPLC based UV-Vis method. The format is ADME.
Data set [10] in a line: Drug metabolism assessed as Escherichia coli NR-mediated compound reduction by measuring specific enzyme activity at 100 uM measured every 20 mins by HPLC based UV-Vis method. The format is ADME.

T1 sequence (P15559 whole entry): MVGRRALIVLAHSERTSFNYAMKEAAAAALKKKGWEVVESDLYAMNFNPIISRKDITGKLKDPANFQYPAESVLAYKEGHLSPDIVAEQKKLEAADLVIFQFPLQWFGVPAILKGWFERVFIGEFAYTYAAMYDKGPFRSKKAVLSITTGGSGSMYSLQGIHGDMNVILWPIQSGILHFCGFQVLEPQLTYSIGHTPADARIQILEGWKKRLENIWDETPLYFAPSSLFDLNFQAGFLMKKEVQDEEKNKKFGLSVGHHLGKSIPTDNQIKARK

What is called IC50 is the point on the concentration scale where inhibition reaches its midpoint. For the molecule `O=[N+]([O-])c1ccc(N2Cc3ccccc3CC2CCl)c([N+](=O)[O-])c1` (stereo unspecified), the results for the Activity in [1] and in data set [3] were 0.0033 µmol/min/mg and 0.254 µmol/min/mg, respectively. The “fold change (FC)” value in data set [2] came to 0.532; in data set [4], 0.137. For the same molecule, the half-inhibitory concentration (IC50) turned out to be 49 µM in data set [5], 43.1 µM in data set [6], 1.2 µM in data set [7] and 36.6 µM in data set [8].
For the molecule `O=[N+]([O-])c1ccc(N2Cc3ccccc3CC2CCl)cc1` (stereo unspecified), the Activity in [1] was below 0.0001 µmol/min/mg; in [3], below 0.01 µmol/min/mg. For the same molecule, the “fold change (FC)” value in [2] is on record as below 0.01; in data set [4], below 0.001. Also, the IC50 in data set [5] stood at 3.3 µM; in [6] it was 2.8 µM; in data set [7], 3.1 µM; in data set [8] it was 2.9 µM.
Take `O=[N+]([O-])c1cc(C(F)(F)F)ccc1N1Cc2ccccc2CC1CCl` (stereo unspecified): the Activity was 0.0177 µmol/min/mg in data set [1] and below 0.01 µmol/min/mg in data set [3]. For the same molecule, the “fold change (FC)” value in [2] is given as 2.855; in data set [4], below 0.001. In addition, the IC50 in data set [5] was 36.6 µM; in [6], 31.2 µM; in [7], 39.1 µM; in data set [8], 34.4 µM.
Regarding `O=[N+]([O-])c1ccc(N2Cc3ccccc3CC2CCl)c(C(F)(F)F)c1` (stereo unspecified), the Activity is 0.027 µmol/min/mg in [1] and 0.166 µmol/min/mg in data set [3]. For the same molecule, the “fold change (FC)” value is 4.355 in [2] and 0.089 in [4]. Further, the IC50 in [5] was 37.8 µM; in [6], 27.5 µM; in data set [7], 3.1 µM; in data set [8], 22.6 µM.
With `O=[N+]([O-])c1ccc(N2Cc3ccccc3CC2CCl)cc1C(F)(F)F` (stereo unspecified), the Activity in data set [1] was 0.012 µmol/min/mg; in data set [3] it was 0.106 µmol/min/mg. Further, the “fold change (FC)” value in data set [2] is given as 1.936; in data set [4] it was 0.057. Also, the half-maximal inhibitory concentration (IC50) in data set [5] came to 7.3 µM; in [6] it was 5.9 µM; in [7], 2.9 µM; in [8] it was 5.8 µM.
Take `NC(=O)c1cc(N2CC2)c([N+](=O)[O-])cc1[N+](=O)[O-]` [TRETAZICAR]: the IC50 in [5] is 196 µM; in data set [6], 1.5 µM; in [7], 0.03 µM; in data set [8], 0.05 µM. Also, the Activity came to 0.0062 µmol/min/mg in data set [9] and 1.86 µmol/min/mg in data set [10].
